Results reported in PubChem BioAssay (NCI).
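A five-concentration, 48-hour dose response in 96-well plates underlies each endpoint, interpolated linearly between surrounding concentrations. TGI denotes the concentration required for complete inhibition of growth.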

What was measured:
Test in all cases: NCI anticancer screen, dose series, 48 h
OVCAR-4 ovarian = system: OVCAR-4 ovarian
MDA-N = system: MDA-N
CCRF-CEM leukemia = system: CCRF-CEM leukemia
HCT-15 colon = system: HCT-15 colon
SK-MEL-28 melanoma = system: SK-MEL-28 melanoma
U251 CNS = system: U251 CNS
NCI-H460 lung = system: NCI-H460 lung
NCI/ADR-RES ovarian = system: NCI/ADR-RES ovarian
KM12 colon = system: KM12 colon
UACC-62 melanoma = system: UACC-62 melanoma
MALME-3M melanoma = system: MALME-3M melanoma
NCI-H226 lung = system: NCI-H226 lung
OVCAR-3 ovarian = system: OVCAR-3 ovarian
ACHN renal = system: ACHN renal
MOLT-4 leukemia = system: MOLT-4 leukemia
T-47D breast = system: T-47D breast
K-562 leukemia = system: K-562 leukemia
CAKI-1 renal = system: CAKI-1 renal
SF-539 CNS = system: SF-539 CNS
COLO 205 colon = system: COLO 205 colon
A549 NSCLC = system: A549 NSCLC
PC-3 prostate = system: PC-3 prostate
NCI-H23 lung = system: NCI-H23 lung
NCI-H522 lung = system: NCI-H522 lung
HOP-92 NSCLC = system: HOP-92 NSCLC
IGROV1 ovarian = system: IGROV1 ovarian
EKVX NSCLC = system: EKVX NSCLC
HL-60(TB) leukemia = system: HL-60(TB) leukemia
HOP-62 NSCLC = system: HOP-62 NSCLC
SW-620 colon = system: SW-620 colon
RXF 393 renal = system: RXF 393 renal
HCT-116 colon = system: HCT-116 colon
UO-31 renal = system: UO-31 renal
BT-549 breast = system: BT-549 breast
MDA-MB-231 breast = system: MDA-MB-231 breast
SNB-19 CNS = system: SNB-19 CNS
SF-268 CNS = system: SF-268 CNS
SNB-75 CNS = system: SNB-75 CNS
LOX IMVI melanoma = system: LOX IMVI melanoma
HS 578T breast = system: HS 578T breast
SR leukemia = system: SR leukemia
MDA-MB-435 = system: MDA-MB-435
786-0 renal = system: 786-0 renal
OVCAR-8 ovarian = system: OVCAR-8 ovarian
SK-MEL-5 melanoma = system: SK-MEL-5 melanoma
OVCAR-5 ovarian = system: OVCAR-5 ovarian
SK-MEL-2 melanoma = system: SK-MEL-2 melanoma
SK-OV-3 ovarian = system: SK-OV-3 ovarian
SF-295 CNS = system: SF-295 CNS
DU-145 prostate = system: DU-145 prostate
UACC-257 melanoma = system: UACC-257 melanoma
A498 renal = system: A498 renal
SN12C renal = system: SN12C renal
MCF7 breast = system: MCF7 breast
HT29 colon = system: HT29 colon
RPMI-8226 leukemia = system: RPMI-8226 leukemia
TK-10 renal = system: TK-10 renal
M14 melanoma = system: M14 melanoma
HCC-2998 colon = system: HCC-2998 colon

CC1=NN(c2ccccc2)C(=O)C1N=Nc1ccc([As](=O)(O)O)c(O)c1 (stereo not drawn)
TGI (OVCAR-4 ovarian): > 100 µM | TGI (MDA-N): > 100 µM | TGI (CCRF-CEM leukemia): 92.6 µM | TGI (HCT-15 colon): > 100 µM | TGI (SK-MEL-28 melanoma): > 100 µM | TGI (U251 CNS): > 100 µM | TGI (NCI-H460 lung): > 100 µM | TGI (NCI/ADR-RES ovarian): > 100 µM | TGI (KM12 colon): > 100 µM | TGI (UACC-62 melanoma): > 100 µM | TGI (MALME-3M melanoma): > 100 µM | TGI (NCI-H226 lung): > 100 µM | TGI (OVCAR-3 ovarian): > 100 µM | TGI (ACHN renal): > 100 µM | TGI (MOLT-4 leukemia): > 100 µM | TGI (T-47D breast): > 100 µM | TGI (K-562 leukemia): > 100 µM | TGI (CAKI-1 renal): > 100 µM | TGI (SF-539 CNS): > 100 µM | TGI (COLO 205 colon): > 100 µM | TGI (A549 NSCLC): > 100 µM | TGI (PC-3 prostate): > 100 µM | TGI (NCI-H23 lung): > 100 µM | TGI (NCI-H522 lung): > 100 µM | TGI (HOP-92 NSCLC): > 100 µM | TGI (IGROV1 ovarian): > 100 µM | TGI (EKVX NSCLC): > 100 µM | TGI (HL-60(TB) leukemia): > 100 µM | TGI (HOP-62 NSCLC): > 100 µM | TGI (SW-620 colon): > 100 µM | TGI (RXF 393 renal): > 100 µM | TGI (HCT-116 colon): > 100 µM | TGI (UO-31 renal): > 100 µM | TGI (BT-549 breast): > 100 µM | TGI (MDA-MB-231 breast): > 100 µM | TGI (SNB-19 CNS): > 100 µM | TGI (SF-268 CNS): > 100 µM | TGI (SNB-75 CNS): > 100 µM | TGI (LOX IMVI melanoma): > 100 µM | TGI (HS 578T breast): > 100 µM | TGI (SR leukemia): > 100 µM | TGI (MDA-MB-435): > 100 µM | TGI (786-0 renal): > 100 µM | TGI (OVCAR-8 ovarian): > 100 µM | TGI (SK-MEL-5 melanoma): > 100 µM | TGI (OVCAR-5 ovarian): > 100 µM | TGI (SK-MEL-2 melanoma): > 100 µM | TGI (SK-OV-3 ovarian): > 100 µM | TGI (SF-295 CNS): > 100 µM | TGI (DU-145 prostate): > 100 µM | TGI (UACC-257 melanoma): > 100 µM | TGI (A498 renal): > 100 µM | TGI (SN12C renal): > 100 µM | TGI (MCF7 breast): > 100 µM | TGI (HT29 colon): > 100 µM | TGI (RPMI-8226 leukemia): > 100 µM | TGI (TK-10 renal): > 100 µM | TGI (M14 melanoma): > 100 µM

Cc1ccc2c(c1)C(=O)/C(=C\c1ccccc1)CCS2(=O)=O
TGI (OVCAR-4 ovarian): 46.5 µM | TGI (MDA-N): > 52.4 µM | TGI (HCT-15 colon): 19.7 µM | TGI (SK-MEL-28 melanoma): > 66.4 µM | TGI (U251 CNS): 31 µM | TGI (NCI-H460 lung): 24.9 µM | TGI (NCI/ADR-RES ovarian): > 52.2 µM | TGI (KM12 colon): 28.2 µM | TGI (HCC-2998 colon): 28.6 µM | TGI (UACC-62 melanoma): 31.9 µM | TGI (MALME-3M melanoma): 36.5 µM | TGI (NCI-H226 lung): > 49.9 µM | TGI (OVCAR-3 ovarian): 39.9 µM | TGI (ACHN renal): 24.2 µM | TGI (MOLT-4 leukemia): 87.5 µM | TGI (T-47D breast): 49.6 µM | TGI (K-562 leukemia): 5.52 µM | TGI (CAKI-1 renal): 49.9 µM | TGI (SF-539 CNS): 29.9 µM | TGI (COLO 205 colon): 42 µM | TGI (A549 NSCLC): > 87.8 µM | TGI (PC-3 prostate): > 71.1 µM | TGI (NCI-H23 lung): 40.7 µM | TGI (NCI-H522 lung): 14.6 µM | TGI (HOP-92 NSCLC): > 56.9 µM | TGI (IGROV1 ovarian): 28.7 µM | TGI (EKVX NSCLC): > 100 µM | TGI (HOP-62 NSCLC): > 86 µM | TGI (SW-620 colon): 73.5 µM | TGI (HCT-116 colon): 18.7 µM | TGI (UO-31 renal): 26.7 µM | TGI (BT-549 breast): > 37.2 µM | TGI (MDA-MB-231 breast): 35.5 µM | TGI (SNB-19 CNS): 28.2 µM | TGI (SF-268 CNS): > 68.7 µM | TGI (SNB-75 CNS): > 58 µM | TGI (LOX IMVI melanoma): 44.3 µM | TGI (HS 578T breast): > 85.1 µM | TGI (SR leukemia): > 24.7 µM | TGI (MDA-MB-435): > 61.4 µM | TGI (786-0 renal): 25.2 µM | TGI (OVCAR-8 ovarian): 62.6 µM | TGI (SK-MEL-5 melanoma): 29.4 µM | TGI (OVCAR-5 ovarian): > 55.7 µM | TGI (SK-MEL-2 melanoma): 89.8 µM | TGI (SK-OV-3 ovarian): 60.8 µM | TGI (SF-295 CNS): 29.6 µM | TGI (DU-145 prostate): 21.8 µM | TGI (UACC-257 melanoma): 31.6 µM | TGI (A498 renal): 52.1 µM | TGI (SN12C renal): 53.3 µM | TGI (MCF7 breast): 18.9 µM | TGI (HT29 colon): 24.1 µM | TGI (TK-10 renal): 30.7 µM | TGI (M14 melanoma): > 53.8 µM
